Measurements from patent US8513234B2, “HIV integrase inhibitors” (Merck Sharp & Dohme Corp., priority 2008, dated 2013).
Like-named read-outs stand apart in the source and are kept apart here.

Experiments:
[1] = test system: virus containing G140S/Q148H mutation in the integrase gene; details: k = IC50(mutant)/IC50(wild type)
Experimental: (§1) An assay for measuring the inhibition of acute HIV infection with HeLa P4-2 cells in a single cycle infectivity assay was conducted using methods described in Joyce et al., J. Biol. Chem. 2002, 277: 45811, Hazuda et al., Science 2000, 287: 646, and Kimpton et al, J. Virol. 1992, 66: 2232. Proviral plasmids encoding viruses containing specific mutations in the integrase gene (N155H, Q148R, Y143R, E92Q, or G140S/Q148H) were generated by site-directed mutagenesis, and viruses were produced by transfecting 293T cells with the appropriate proviral plasmids.

[2] = test system: virus containing N155H mutation in the integrase gene; details: k = IC50(mutant)/IC50(wild type)
Experimental: as §1

[3] = test system: virus containing E92Q mutation in the integrase gene; details: k = IC50(mutant)/IC50(wild type)
Experimental: as §1

[4] = test system: virus containing Y143R mutation in the integrase gene; details: k = IC50(mutant)/IC50(wild type)
Experimental: as §1

[5] = test system: virus containing Q148R mutation in the integrase gene; details: k = IC50(mutant)/IC50(wild type)
Experimental: as §1

[6] = target: T1, recombinant integrase (HIV-1 integrase) (Human immunodeficiency virus type 1 group M subtype B, UniProt P04585); assay: HIV-1 integrase assay: strand transfer catalyzed by recombinant integrase; format: biochemical; details: strand transfer activity
T1 construct: Assays for the strand transfer activity of integrase were conducted in accordance with WO 02/30930 for recombinant integrase
Experimental: HIV-1 Integrase Assay: Strand Transfer Catalyzed by Recombinant Integrase
Assays for the strand transfer activity of integrase were conducted in accordance with WO 02/30930 for recombinant integrase. […] For example, the compounds prepared in Examples 1 to 5 were tested in the integrase assay and found to have the IC50 values in Table B. (Compounds 6A and 6B were not tested in this assay.)
Further description on conducting the assay using preassembled complexes is found in Wolfe, A. L. et al., J. Virol. 1996, 70: 1424-1432, Hazuda et al., J. Virol. 1997, 71: 7005-7011; Hazuda et al., Drug Design and Discovery 1997, 15: 17-24; and Hazuda et al., Science 2000, 287: 646-650.

[7] = test system: wild type IIIB; assay: Single cycle infectivity assay in HeLa P4-2 cells, wild type virus; format: cell-based, HIV
[8] = test system: HIV-1; assay: Inhibition of acute HIV-1 infection of T-lymphoid cells (spread assay); format: cell-based
Experimental: Assay for Inhibition of HIV-1 Replication
Assays for the inhibition of acute HIV-1 infection of T-lymphoid cells were conducted in accordance with Vacca, J. P. et al, Proc. Natl. Acad. Sci. USA 1994, 91: 4096.

[9] = Human immunodeficiency virus 1, IIIB, HeLaP4-2, HeLa P4-2 cells, single cycle infectivity, wild type IIIB, read-out: wild type IIIB IC50
[10] = HeLa P4-2 cells, single cycle infectivity, wild type IIIB, read-out: wild type IIIB IC50

Compound | Number of fold shift in IC50 versus wild type IIIB, G140S/Q148H [1] | Number of fold shift in IC50 versus wild type IIIB, N155H [2] | Number of fold shift in IC50 versus wild type IIIB, E92Q [3] | Number of fold shift in IC50 versus wild type IIIB, Y143R [4] | Number of fold shift in IC50 versus wild type IIIB, Q148R [5] | IC50 ([6]; read-out: IC50) [nM] | IC50 [7, 9] [nM] | IC95 (nM) in the presence of 10% FBS [8] [nM] | IC50 ([7]; Human immunodeficiency virus 1, IIIB, HeLaP4-2, read-out: wild type IIIB IC50 (nM)) [nM] | IC50 ([6]; IC50 (nM)) [nM] | IC50 [7, 10] [nM]
Cc1cc(CNC(=O)c2nc3n(c(=O)c2O)[C@@H](C)COC[C@H]3N(C)C(=O)C(=O)N(C)C)ccc1F [Compound 4A, N-((6S,10S)-2-{[(4-fluoro-3-methylbenzyl)amino]carbonyl}-3-hydroxy-6-methyl-4-oxo-6,7,9,10-tetrahydro-4H-pyrimido[1,2-d][1,4]oxazepin-10-yl)-N,N′,N′-trimethylethanediamide] | 12 | 2 | 1 | 2 | 2 | 38 | 19 | 10 | – | – | –
Cc1nnc(C(=O)NC(C)(C)c2nc(C(=O)NCc3ccc(F)cc3)c(O)c(=O)n2C)o1 [Compound X, raltegravir, reference compound] | 397 | 13 | 3 | 15 | 22 | – | – | – | 52 | – | –
CO[C@]1(C)CC[C@@H](N(C)C(=O)C(=O)N(C)C)c2nc(C(=O)NCc3ccc(F)c(C)c3)c(O)c(=O)n2C1 [Compound 2A, N-((7R,10R)-2-{[(4-fluoro-3-methylbenzyl)amino]carbonyl}-3-hydroxy-7-methoxy-7-methyl-4-oxo-4,6,7,8,9,10-hexahydropyrimido[1,2-a]azepin-10-yl)-N,N′,N′-trimethylethanediamide] | 10 | 2 | 1 | 2 | 1 | 37 | 17 | 14 | – | – | –
COC1(C)CCC(N(C)C(=O)C(=O)N(C)C)c2nc(C(=O)NCc3ccc(F)c(C)c3)c(O)c(=O)n2C1 (single isomer, unassigned) [Compound 2C, N-(2-{[(4-fluoro-3-methylbenzyl)amino]carbonyl}-3-hydroxy-7-methoxy-7-methyl-4-oxo-4,6,7,8,9,10-hexahydropyrimido[1,2-a]azepin-10-yl)-N,N′,N′-trimethylethanediamide] | 68 | 19 | – | 3 | 22 | – | – | 9 | – | 73 | 8
Cc1ccc(CNC(=O)c2nc3n(c(=O)c2O)C(C)CCCC3N(C)C(=O)C(=O)N(C)C)cc1F (single isomer, unassigned) [Compound 3B, Cis-N-(2-{[(3-fluoro-4-methylbenzyl)amino]carbonyl}-3-hydroxy-6-methyl-4-oxo-4,6,7,8,9,10-hexahydropyrimido[1,2-a]azepin-10-yl)-N,N′,N′-trimethylethanediamide] | 2 | 1 | – | 1 | 1 | – | 48 | 41 | – | 44 | –
CCN(C(=O)C(=O)N(C)C)[C@@H]1CC[C@H](OC)Cn2c1nc(C(=O)NCc1ccc(F)cc1)c(O)c2=O [Compound 6A, N-ethyl-N-((7S,10R)-2-{[(4-fluorobenzyl)amino]carbonyl}-3-hydroxy-7-methoxy-4-oxo-4,6,7,8,9,10-hexahydropyrimido [1,2-a]azepin-10-yl)-N′,N′-dimethylethanediamide] | 2 | 2 | 3 | 3 | 1 | – | 16 | 12 | – | – | –
CC1(C)OCCn2c1nc(C(=O)NCc1ccc(F)cc1)c(O)c2=O [Compound Z, N-[(4-fluorophenyl)methyl]-3-hydroxy-9,9-dimethyl-4-oxo-4,6,7,9-tetrahydro-6H-pyrimido[2,1-c][1,4]oxazine-2-carboxamide, reference compound] | >34 | 32 | 26 | 1 | >34 | – | – | – | – | – | 34
CC[C@H]1COC[C@H](N(C)C(=O)C(=O)N(C)C)c2nc(C(=O)NCc3ccc(F)cc3)c(O)c(=O)n21 [Compound 5B] | 11 | 3 | 1 | 2 | 1 | 40 | 42 | 10 | – | – | –
Cc1cc(CNC(=O)c2nc3n(c(=O)c2O)[C@H](C)COC[C@H]3N(C)C(=O)C(=O)N(C)C)ccc1F [Compound 4D, N-((6R,10S)-2-{[(4-fluoro-3-methylbenzyl)amino]carbonyl}-3-hydroxy-6-methyl-4-oxo-6,7,9,10-tetrahydro-4H-pyrimido[1,2-d][1,4]oxazepin-10-yl)-N,N′,N′-trimethylethanediamide] | 72 | 8 | – | 2 | 9 | 36 | 20 | 6 | – | – | –
CC[C@H]1COC[C@@H](N(C)C(=O)C(=O)N(C)C)c2nc(C(=O)NCc3ccc(F)cc3)c(O)c(=O)n21 [Compound 5A, N-((6S,10S)-6-ethyl-2-{[(4-fluorobenzyl)amino]carbonyl}-3-hydroxy-4-oxo-6,7,9,10-tetrahydro-4-pyrimido[1,2-][1,4]oxazepin-10-yl)-N N′N′-trimethylethanediamide] | 4 | 1 | 2 | 1 | 1 | 46 | 28 | 12 | – | – | –
CN(C)C(=O)C(=O)N(C)C1CCCCn2c1nc(C(=O)NCc1ccc(F)cc1)c(O)c2=O (single isomer, unassigned; (-)) [Compound Y, (−)N-(2-{[(4-fluorobenzyl)amino]carbonyl}-3-hydroxy-4-oxo-4,6,7,8,9,10-hexahydropyrimido[1,2-a]azepin-10-yl)-N,N′,N′-trimethylethanediamide, reference compound] | 406 | 15 | 4 | 1 | 26 | – | 16 | – | – | – | –
